This is an account of results in patent publication US20240239799A1, “(S)-1-(5-((PYRIDIN-3-YL)THIO)PYRAZIN-2-YL)-4'H,6'H-SPIRO[PIPERIDINE-4,5'-PYRROLO [1,2-B]PYRAZOL]-4'-AMINE DERIVATIVES AND SIMILAR COMPOUNDS AS SHP2 INHIBITORS FOR THE TREATMENT OF E.G. CANCER” (C.N.C.C.S. S.C.A.R.L. COLLEZIONE NAZIONALE DEI COMPOSTI …, priority 2021, published 2024).

One may read the IC50 as the concentration that gives 50% inhibition. A word on the koff: it is the rate constant with which the complex falls apart. A higher koff goes with a short-lived complex.

In experiment [1] the test system is phospho-ERK1/2 (Thr202/Tyr204) in KYSE-520 cells. As to the kind of experiment: Phospho-ERK cellular assay (TR-FRET). It counts as cell-based. To be noted: Homo sapiens, KYSE-520, 2 h, KYSE-520 cells, 2 h at 37° C.; read-out: pERK IC50. In short, it runs like this:
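KYSE-520 cells plated overnight, then exposed to compound for 2 h at 37° C and lysed. Phospho-ERK1/2 (Thr202/Tyr204) detected by TR-FRET with Eu-cryptate and D2 antibodies after overnight incubation at rt. IC50 from four-parameter fit, normalised to DMSO (0%) and no-cell (100%) controls.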
A general note: TR-FRET usually uses a lanthanide donor and a delayed reading to cut background.

For experiment [2], the target named is T1, SHP-2 enzyme (Met1-Leu525) (Homo sapiens, UniProt Q06124).
T1 construct: synthetized by Origene, Met1-Leu525, cat #TP750155; purchased Origene TP750155
T1 sequence (Q06124 1-525): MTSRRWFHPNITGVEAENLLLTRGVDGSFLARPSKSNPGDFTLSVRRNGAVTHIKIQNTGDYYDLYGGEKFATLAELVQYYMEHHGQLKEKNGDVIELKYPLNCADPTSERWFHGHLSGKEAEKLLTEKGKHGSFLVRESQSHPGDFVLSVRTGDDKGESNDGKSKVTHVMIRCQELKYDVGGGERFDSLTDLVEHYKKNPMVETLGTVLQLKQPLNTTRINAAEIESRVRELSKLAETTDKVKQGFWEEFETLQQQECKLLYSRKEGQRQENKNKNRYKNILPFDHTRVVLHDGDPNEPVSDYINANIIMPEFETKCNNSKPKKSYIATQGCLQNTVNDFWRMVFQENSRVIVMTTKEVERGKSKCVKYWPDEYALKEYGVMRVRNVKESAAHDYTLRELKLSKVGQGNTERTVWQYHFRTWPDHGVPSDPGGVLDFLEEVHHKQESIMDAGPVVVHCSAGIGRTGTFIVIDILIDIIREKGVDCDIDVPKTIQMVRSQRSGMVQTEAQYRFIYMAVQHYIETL
As to the kind of experiment: SHP2 inhibition enzymatic assay (DiFMUP substrate, IRS1 peptide activation). It counts as biochemical. To be noted: 0.5 nM SHP-2, 500 nM IRS1 peptide, 75 μM DiFMUP; read-out: SHP2wt - IC50.

Experiment [3] addresses T2, SHP2 (Avi-G4SG4S-PTPN11(1-525)) (Homo sapiens, UniProt Q06124).
T2 construct: (Avi-G4SG4S-PTPN11(1-525)); purchased Viva Biotech Ltd
T2 sequence (Q06124 1-525): T1 sequence (Q06124 1-525)
As to the kind of experiment: Binding kinetic assay by surface plasmon resonance (SPR). To be noted: Biacore T200, single cycle kinetic, 1:1 Langmuir binding model; for koff: triplicate. As to the method: A binding assay for measuring SHP2 inhibitors binding kinetic was developed using a Biacore T200 Instrument (Cytiva, Sweden). […] Data analysis was performed by Biacore T200 Evaluation software (Cytiva), and kinetic parameters were evaluated by a global fitting according to a 1:1 Langmuir binding model. Each molecule was tested in triplicate on separate flow channels.
On the technique in general: SPR reads the build-up and loss of mass on a sensor chip optically.

Regarding `N[C@@H]1c2ccnn2CC12CCN(c1cnc(Sc3ccnc4c3OC[C@@H]3CCCN43)cn1)CC2` [Example 13, (S)-1-(5-(((S)-6a,7,8,9-tetrahydro-6H-pyrido[3,2-b]pyrrolo[1,2-d][1,4]oxazin-4-yl)thio)pyrazin-2-yl)-4′H,6′H-spiro[piperidine-4,5′-pyrrolo[1,2-b]pyrazol]-4′-amine], the IC50 in experiment [1] was below 100 nM. Moreover, the 50% inhibitory concentration (IC50) in experiment [2] was at most 50 nM. Besides, in experiment [3], the “Residence time 1/koff SPR” value is 3333 s and the koff amounted to 0.0003 s⁻¹.

Regarding `Cc1nn2c(c1Cl)[C@@H](N)C1(CCN(c3cnc(Sc4ccnc(N)c4Cl)cn3)CC1)C2` [Example 14, (S)-1-(5-((2-amino-3-chloropyridin-4-yl)thio)pyrazin-2-yl)-3′-chloro-2′-methyl-4′H,6′H-spiro[piperidine-4,5′-pyrrolo[1,2-b]pyrazol]-4′-amine], the IC50 in experiment [1] was below 100 nM. Besides, the IC50 in experiment [2] was at most 50 nM. Besides, in experiment [3], the “Residence time 1/koff SPR” value was 14535 s and the koff came to 6.88e-05 s⁻¹.

In the case of `Cn1cc2c(Cl)c(Sc3cnc(N4CCC5(CC4)Cn4nccc4[C@H]5N)n4ccnc34)ccc2n1` [Example 16, (S)-1-(8-((4-chloro-2-methyl-2H-indazol-5-yl)thio)imidazo[1,2-c]pyrimidin-5-yl)-4′H,6′H-spiro[piperidine-4,5′-pyrrolo[1,2-b]pyrazol]-4′-amine], the IC50 in experiment [1] is below 100 nM; in experiment [2], at most 50 nM. In addition, in experiment [3], the “Residence time 1/koff SPR” value was determined as 16026 s. Further, the off-rate (koff) in experiment [3] came to 6.24e-05 s⁻¹.

On to `Nc1nccc(Sc2cnc(N3CCC4(CC3)Cn3ncc(Cl)c3[C@H]4N)n3ccnc23)c1Cl` [Example 18, (S)-1-(8-((2-amino-3-chloropyridin-4-yl)thio)imidazo[1,2-c]pyrimidin-5-yl)-3′-chloro-4′H,6′H-spiro[piperidine-4,5′-pyrrolo[1,2-b]pyrazol]-4′-amine], for which the IC50 in experiment [1] was below 100 nM. The IC50 in experiment [2] was at most 50 nM. For the same compound, in experiment [3], the “Residence time 1/koff SPR” value is 37175 s and the koff is 2.69e-05 s⁻¹.

On to `Nc1nccc(Sc2cnc(N3CCC4(CC3)Cn3nccc3[C@H]4N)c3cncn23)c1Cl` [Example 19, (S)-1-(5-((2-amino-3-chloropyridin-4-yl)thio)imidazo[1,5-a]pyrazin-8-yl)-4′H,6′H-spiro[piperidine-4,5′-pyrrolo[1,2-b]pyrazol]-4′-amine], for which the IC50 in experiment [1] was below 100 nM. Further, the IC50 in experiment [2] is at most 50 nM. Also, in experiment [3], the “Residence time 1/koff SPR” value was 5464 s and the koff came out at 0.000183 s⁻¹.

In the case of `Nc1nccc(Sc2cnc(N3CCC4(CC3)Cn3nc5c(c3[C@H]4N)CCC5)c3cncn23)c1Cl` [Example 21, (S)-1′-(5-((2-amino-3-chloropyridin-4-yl)thio)imidazo[1,5-a]pyrazin-8-yl)-1,2,3,8-tetrahydro-6H-spiro[cyclopenta[d]pyrrolo[1,2-b]pyrazole-7,4′-piperidin]-8-amine], the IC50 in experiment [1] was below 100 nM; in experiment [2], at most 50 nM. In experiment [3], the “Residence time 1/koff SPR” value came out at 12903 s. Besides, the off-rate (koff) in experiment [3] was found to be 7.75e-05 s⁻¹.

For `Cc1cc2n(n1)CC1(CCN(c3ncc(Sc4ccnc(N)c4Cl)n4cncc34)CC1)[C@@H]2N` [Example 23, (S)-1-(5-((2-amino-3-chloropyridin-4-yl)thio)imidazo[1,5-a]pyrazin-8-yl)-2′-methyl-4′H,6′H-spiro[piperidine-4,5′-pyrrolo[1,2-b]pyrazol]-4′-amine], the IC50 in experiment [1] was below 100 nM. Further, in experiment [2], the IC50 is at most 50 nM. Besides, in experiment [3], the “Residence time 1/koff SPR” value was 6536 s and the off-rate (koff) was 0.000153 s⁻¹.

Regarding `Nc1nccc(Sc2cnc(N3CCC4(CC3)Cn3nc5c(c3[C@H]4N)COC5)cn2)c1Cl` [Example 27, (S)-1′-(5-((2-amino-3-chloropyridin-4-yl)thio)pyrazin-2-yl)-1,8-dihydro-3H,6H-spiro[furo[3,4-d]pyrrolo[1,2-b]pyrazole-7,4′-piperidin]-8-amine], in experiment [1], the IC50 was below 100 nM. For the same compound, the half-maximal inhibitory concentration (IC50) in experiment [2] was at most 50 nM. Further, in experiment [3], the “Residence time 1/koff SPR” value stood at 30303 s and the koff was 3.3e-05 s⁻¹.

As to `Nc1nccc(Sc2cnc(N3CCC4(CC3)Cn3nc5c(c3[C@H]4N)COC5)c3cncn23)c1Cl` [Example 29, (S)-1′-(5-((2-amino-3-chloropyridin-4-yl)thio)imidazo[1,5-a]pyrazin-8-yl)-1,8-dihydro-3H,6H-spiro[furo[3,4-d]pyrrolo[1,2-b]pyrazole-7,4′-piperidin]-8-amine], the IC50 in experiment [1] is above 500 nM. Also, the IC50 in experiment [2] is at most 50 nM. Further, in experiment [3], the “Residence time 1/koff SPR” value worked out at 1715 s and the koff was determined as 0.000583 s⁻¹.

`N[C@@H]1c2ccnn2CC12CCN(c1cnc(Sc3ccn4ccnc4c3Cl)cn1)CC2` [Example 31, (S)-1-(5-((8-chloroimidazo[1,2-a]pyridin-7-yl)thio)pyrazin-2-yl)-4′H,6′H-spiro[piperidine-4,5′-pyrrolo[1,2-b]pyrazol]-4′-amine]: in experiment [1], the IC50 is below 100 nM. Further, in experiment [2], the IC50 is at most 50 nM. Also, in experiment [3], the “Residence time 1/koff SPR” value is 12674 s and the off-rate constant (koff) stood at 7.89e-05 s⁻¹.

As to `Nc1nccc(Sc2cnc(N3CCC4(CC3)Cn3nncc3[C@H]4N)cn2)c1Cl` [Example 38, (S)-1-(5-((2-amino-3-chloropyridin-4-yl)thio)pyrazin-2-yl)-4′H,6′H-spiro[piperidine-4,5′-pyrrolo[1,2-c][1,2,3]triazol]-4′-amine], in experiment [1], the half-inhibitory concentration (IC50) is below 100 nM. Further, the half-inhibitory concentration (IC50) in experiment [2] is at most 50 nM. In experiment [3], the “Residence time 1/koff SPR” value stood at 1062 s and the koff is 0.000942 s⁻¹.

Regarding `N[C@@H]1c2c(F)cnn2CC12CCN(c1cnc(Sc3ccn4ccnc4c3Cl)cn1)CC2` [Example 49, (S)-1-(5-((8-chloroimidazo[1,2-a]pyridin-7-yl)thio)pyrazin-2-yl)-3′-fluoro-4′H,6′H-spiro[piperidine-4,5′-pyrrolo[1,2-b]pyrazol]-4′-amine], the IC50 in experiment [1] is below 100 nM. Besides, the IC50 in experiment [2] is at most 50 nM. Moreover, in experiment [3], the “Residence time 1/koff SPR” value is 14493 s and the koff was 6.9e-05 s⁻¹.
